Assays:
Type in all cases: cell-based
Raji cells = test: Raji cell killing experiment (CellTiter-Glo cell viability); settings: Homo sapiens, 48 h incubation, CTG luminescence
Description: (§1) Raji cell lines were purchased from ATCC (Cat #ATCC® CCL-86™), RPMI1640 media were purchased from ATCC (Cat #ATCC® 30-2001™), FBS was purchased from Gibco (Cat #10091148), celltiter-glo luminescent cell viability assay was purchased from promega (Cat #G7572), and 96-well plates were purchased from coming (Cat #3610).
(§2) The effect of compounds on the growth of Raji cells was determined by measuring cell viability and growth rate. Firstly, cells in the logarithmic growth phase were collected and centrifuged, and the culture supernatant was discarded. The centrifuged cells were resuspended in a fresh complete medium, and the cell density was adjusted to 5×10^4 cells/mL. The resuspended cells were inoculated into two identical opaque 96-well cell culture plates at 100 μL of cell suspension per well, and the cell culture plates were incubated in a cell incubator at 37° C. for 4 h. After 4 h, dilutions (20 μL) of compounds with different concentrations were added. After one of the cell plates was cooled to room temperature, 60 μL of CTG reagent was added, and the luminescence values were read on the instrument as G0. The other one was incubated in a cell incubator for 48 h. After 48 h, 60 μL of CTG reagent was added, and the luminescence values were read on the instrument as G3.
(§3) According to the corresponding proliferation rate and concentration of each gradient concentration well, a gradient curve of cell proliferation was fitted using XLFit software, and the GI50 values of compounds were calculated.

GSPT1 = biological target: T1, GSPT1 (Homo sapiens, UniProt P15170+Q96SW2); test: Degradation of GSPT1 by the compounds (HiBiT signal in GSPT1/HEK293 hibit cells); settings: 6 h incubation, Nano Glo HiBiT Lytic Detection
T1 construct: host or cells: HEK293
T1 sequence (P15170 whole entry): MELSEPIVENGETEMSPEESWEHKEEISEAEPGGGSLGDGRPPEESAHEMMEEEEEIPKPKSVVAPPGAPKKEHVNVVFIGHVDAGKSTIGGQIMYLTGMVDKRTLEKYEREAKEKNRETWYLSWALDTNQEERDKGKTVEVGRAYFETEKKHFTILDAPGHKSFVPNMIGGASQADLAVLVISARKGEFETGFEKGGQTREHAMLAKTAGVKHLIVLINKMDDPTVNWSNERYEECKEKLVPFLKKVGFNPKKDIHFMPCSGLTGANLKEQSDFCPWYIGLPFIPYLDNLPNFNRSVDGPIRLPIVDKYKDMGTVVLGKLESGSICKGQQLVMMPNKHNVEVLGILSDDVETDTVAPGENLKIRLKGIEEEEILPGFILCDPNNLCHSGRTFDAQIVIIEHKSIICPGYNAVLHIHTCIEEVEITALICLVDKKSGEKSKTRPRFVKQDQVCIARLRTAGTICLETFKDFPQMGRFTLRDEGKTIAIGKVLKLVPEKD
T1 sequence (Q96SW2 whole entry): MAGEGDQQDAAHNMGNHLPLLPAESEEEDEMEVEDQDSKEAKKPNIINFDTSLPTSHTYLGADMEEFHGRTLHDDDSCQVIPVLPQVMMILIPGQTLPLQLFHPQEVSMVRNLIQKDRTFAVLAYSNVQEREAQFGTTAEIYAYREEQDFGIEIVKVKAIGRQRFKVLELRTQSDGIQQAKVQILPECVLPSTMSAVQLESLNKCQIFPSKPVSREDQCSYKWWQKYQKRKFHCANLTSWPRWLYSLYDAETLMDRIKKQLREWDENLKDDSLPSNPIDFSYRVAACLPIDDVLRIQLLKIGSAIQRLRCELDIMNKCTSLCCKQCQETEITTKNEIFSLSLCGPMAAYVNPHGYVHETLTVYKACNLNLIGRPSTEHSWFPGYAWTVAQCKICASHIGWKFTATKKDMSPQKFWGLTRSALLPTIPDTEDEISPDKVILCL
T1 sequence (Q16531 whole entry partner): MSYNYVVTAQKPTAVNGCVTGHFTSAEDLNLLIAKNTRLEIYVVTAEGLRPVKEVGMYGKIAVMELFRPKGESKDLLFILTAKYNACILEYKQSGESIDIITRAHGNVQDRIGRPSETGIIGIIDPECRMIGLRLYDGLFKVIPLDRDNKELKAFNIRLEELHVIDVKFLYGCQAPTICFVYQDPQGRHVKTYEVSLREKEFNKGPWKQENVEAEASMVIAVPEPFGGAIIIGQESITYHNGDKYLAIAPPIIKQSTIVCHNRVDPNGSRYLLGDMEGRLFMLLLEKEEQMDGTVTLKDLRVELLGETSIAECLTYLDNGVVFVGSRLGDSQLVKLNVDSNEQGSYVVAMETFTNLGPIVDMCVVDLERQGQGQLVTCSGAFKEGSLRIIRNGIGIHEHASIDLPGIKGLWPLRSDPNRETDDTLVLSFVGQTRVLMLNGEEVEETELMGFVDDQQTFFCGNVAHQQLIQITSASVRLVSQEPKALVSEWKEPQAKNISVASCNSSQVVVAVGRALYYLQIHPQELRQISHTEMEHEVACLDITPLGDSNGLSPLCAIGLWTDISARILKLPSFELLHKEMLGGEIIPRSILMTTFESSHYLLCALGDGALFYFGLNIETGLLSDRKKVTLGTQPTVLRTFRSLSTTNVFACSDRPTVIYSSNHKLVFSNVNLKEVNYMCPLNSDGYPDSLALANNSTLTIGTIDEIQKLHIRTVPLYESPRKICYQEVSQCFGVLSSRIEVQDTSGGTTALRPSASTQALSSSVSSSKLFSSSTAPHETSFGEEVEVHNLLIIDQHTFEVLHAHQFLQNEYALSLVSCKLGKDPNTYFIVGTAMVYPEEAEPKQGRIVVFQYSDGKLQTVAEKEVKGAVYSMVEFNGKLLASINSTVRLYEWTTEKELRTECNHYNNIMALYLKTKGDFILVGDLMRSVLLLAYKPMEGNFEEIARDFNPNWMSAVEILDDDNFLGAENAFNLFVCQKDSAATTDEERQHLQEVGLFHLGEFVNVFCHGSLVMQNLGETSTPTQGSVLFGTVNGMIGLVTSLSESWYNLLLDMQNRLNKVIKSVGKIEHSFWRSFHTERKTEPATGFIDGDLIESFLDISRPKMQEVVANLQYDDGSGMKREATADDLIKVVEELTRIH
Procedure, shortened: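 HEK293 cells with HiBiT-tagged GSPT1 seeded overnight, then treated with serial compound dilutions for 6 h at 37° C. Remaining GSPT1 measured by HiBiT lytic luminescence; DC50 from fitted degradation-concentration curve.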

HL60 cells = test: HL60 cell killing experiment (CellTiter-Glo cell viability); settings: Homo sapiens, HL-60, 48 h incubation, CTG luminescence
Procedure, shortened: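 Cells seeded at 5×10^4 cells/mL, dosed after 4 h at 37 °C, then grown for 48 h. CellTiter-Glo luminescence read at the time of dosing (G0) and after 48 h (G3). GI50 fitted from proliferation rate versus concentration.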

NCI-H929 cells = test: NCI-H929 cell killing experiment (CellTiter-Glo cell viability); settings: Homo sapiens, 48 h incubation, CTG luminescence
Description: as §1, with “NCI-H929” for “Raji”, “CRL-9068™),” for “CCL-86™),”
as §2, with “2. Method The effect” for “The effect”, “growth of NCI-H929 cells was” for “growth of Raji cells was”
as §3

Hep3B cells = test: Hep3B cell killing experiment (CellTiter-Glo cell viability); settings: Homo sapiens, 48 h incubation, CTG luminescence
Description: as §1, with “Hep3B” for “Raji”, “HB-8064™), EMEM” for “CCL-86™), RPMI1640”, “30-2003™),” for “30-2001™),”
The effect of compounds on the growth of Hep3B cells was determined by measuring cell viability and growth rate. Firstly, the cells were digested with pancreatin, and the digestion was then terminated with medium. The cells were centrifuged, and the supernatant was discarded. The centrifuged cells were resuspended in a fresh complete medium, and the cell density was adjusted to 5×10^4 cells/mL. The resuspended cells were inoculated into two identical opaque 96-well cell culture plates at 100 μL of cell suspension per well, and the cell culture plates were incubated in a cell incubator at 37° C. overnight. The next day, dilutions (20 μL) of compounds with different concentrations were added. After one of the cell plates was cooled to room temperature, 60 μL of CTG reagent was added. The luminescence values were read on the instrument as G0. The other one was incubated in a cell incubator for 48 h. After 48 h, 60 μL of CTG reagent was added, and the luminescence values were read on the instrument as G3.
as §3

Jurkat cells = test: Jurkat cell killing experiment (CellTiter-Glo cell viability); settings: Homo sapiens, 48 h incubation, CTG luminescence
Description: as §1, with “Jurkat” for “Raji”, “TIB-152™),” for “CCL-86™),”
as §2, with “Jurkat” for “Raji”
as §3

Toledo cells = test: Toledo cell killing experiment (CellTiter-Glo cell viability); settings: Homo sapiens, 48 h incubation, CTG luminescence
Description: as §1, with “Toledo” for “Raji”, “CRL-2631™),” for “CCL-86™),”
as §2, with “Toledo” for “Raji”
as §3

SU-DHL-2 cells = test: SU-DHL-2 cell killing experiment (CellTiter-Glo cell viability); settings: Homo sapiens, 48 h incubation, CTG luminescence
Description: as §1, with “SU-DHL-2” for “Raji”, “CRL-2956™),” for “CCL-86™),”
as §2, with “SU-DHL-2” for “Raji”
as §3

THP-1 cells = test: THP-1 cell killing experiment (CellTiter-Glo cell viability); settings: Homo sapiens, 48 h incubation, CTG luminescence
Description: as §1, with “THP-1” for “Raji”, “TIB-202™),” for “CCL-86™),”
as §2, with “THP-1” for “Raji”
as §3

Row | Compound | DC50 (GSPT1) [nM] | GI50 (Raji cells) [nM] | GI50 (HL60 cells) [nM] | GI50 (NCI-H929 cells) [nM] | GI50 (Hep3B cells) [nM] | GI50 (Jurkat cells) [nM] | GI50 (Toledo cells) [nM] | GI50 (SU-DHL-2 cells) [nM] | GI50 (THP-1 cells) [nM]
1 | COc1ccc(CNc2cccc3c2C(=O)N(C2CCC(=O)NC2=O)C3=O)cc1C(=O)N[C@H]1CC[C@H](c2nc3ccncc3n2C)CC1 (stereo partly shown) [Example 89] | < 100 | – | < 100 | – | – | 0.5 | – | 1.42 | 5.65
2 | COc1ccc2c(c1)nc([C@H]1CC[C@H](NC(=O)c3cc(CNc4cccc5c4C(=O)N(C4CCC(=O)NC4=O)C5=O)ccn3)CC1)n2C (stereo partly shown) [Example 90] | < 100 | 5.88 | < 100 | 0.93 | – | – | – | – | 4.14

More lines, main results first:

Row | DC50 (GSPT1) [nM] | Compound | GI50 (Raji cells) [nM] | GI50 (HL60 cells) [nM] | GI50 (NCI-H929 cells) [nM] | GI50 (Hep3B cells) [nM] | GI50 (Jurkat cells) [nM] | GI50 (Toledo cells) [nM] | GI50 (SU-DHL-2 cells) [nM] | GI50 (THP-1 cells) [nM]
3 | < 100 | O=C1CCC(N2C(=O)c3cccc(NCc4cccc(C(=O)NC5CCC(c6nc7ccccc7o6)CC5)c4)c3C2=O)C(=O)N1 (stereo not shown) [Example 16] | 362 | < 100 | 0.96 | 1.36 | 4.07 | – | – | –
4 | < 100 | COc1ccc2c(c1)nc([C@H]1CC[C@H](COc3cc(CNc4cccc5c4C(=O)N(C4CCC(=O)NC4=O)C5=O)ccn3)CC1)n2C (stereo partly shown) [Example 75] | 1.79 | < 100 | – | – | 0.4 | 0.45 | 0.93 | –
5 | < 100 | COc1ccc2nc([C@H]3CC[C@H](C(=O)Nc4cccc(CNc5cccc6c5C(=O)N(C5CCC(=O)NC5=O)C6=O)c4)CC3)sc2n1 (stereo partly shown) [Example 97] | 3.43 | < 100 | – | 0.46 | – | – | 1.51 | 2.58

Source: patent US20250361239A1, “PROTEIN DEGRADERS AND USES THEREOF” (ZHUHAI YUFAN BIOTECHNOLOGIES CO., LTD., priority 2022, published 2025)
